Experimental data: BindingDB's records for patent US20250188075 (The Broad Institute, 2025)

Columns and labels:
[1] = biological target: T1, Casein kinase I isoform alpha (Homo sapiens, UniProt P48729); assay: CSNK1A1-Inhibitory Activity Assay (High ATP)
Description: For the assay 50 nl of a 100 fold concentrated solution of the test compound in DMSO was pipetted into a white low volume 384-well microtiter plate (Greiner Bio-One, Frickenhausen, Germany), 2 μL of a solution of CSNK1A1 in aqueous assay buffer [50 mM HEPES pH 7.5, 10% (v/v) glycerol, 10 mM MgCl2, 50 mM NaCl, 1 mM dithiothreitol, 0.01% (w/v) bovine serum albumin, 0.01% (v/v) Triton X-100] were added and the mixture was incubated for 15 min at 22° C. to allow pre-binding of the test compounds to the enzyme before the start of the kinase reaction. Then the kinase reaction was started by the addition of 3 μL of a solution of ATP (1.67 mM=>final conc. in the 5 μL assay volume is 1 mM) and peptide substrate (167 μM=>final conc. in the 5 μL assay volume is 100 μM) in assay buffer and the resulting mixture was incubated for a reaction time of 30 min at 22° C. The concentration of CSNK1A1 was adjusted depending of the activity of the enzyme lot and was chosen appropriate to have the assay in the linear range, a typical concentration is about 0.4 ng/μL. […] Subsequently 2.5 μL of the “kinase detection reagent” (1.2 fold more concentrated than recommended by the producer) were added, the resulting mixture was incubated at 22° C. for 1 h and then the luminescence measured with a suitable measurement instrument (e.g. Viewlux™ from Perkin-Elmer). […]

[2] = biological target: T1, Casein kinase I isoform alpha; assay: CSNK1A1-Inhibitory Activity Assay (Low ATP)
Description: For the assay 50 nl of a 100-fold concentrated solution of the test compound in DMSO was pipetted into a white 1536-well microtiter plate (Greiner Bio-One, Frickenhausen, Germany), 2 μL of a solution of CSNK1A1 in aqueous assay buffer [50 mM HEPES pH 7.5, 10% (v/v) glycerol, 10 mM MgCl2, 50 mM NaCl, 1 mM dithiothreitol, 0.01% (w/v) bovine serum albumin, 0.01% (v/v) Triton X-100] were added and the mixture was incubated for 15 min at 22° C. to allow pre-binding of the test compounds to the enzyme before the start of the kinase reaction. Then the kinase reaction was started by the addition of 3 μL of a solution of ATP (1.67 μM=>final conc. in the 5 μL assay volume is 1 μM) and peptide substrate (50 μM=>final conc. in the 5 μL assay volume is 30 μM) in assay buffer and the resulting mixture was incubated for a reaction time of 30 min at 22° C. The concentration of CSNK1A1 was adjusted depending of the activity of the enzyme lot and was chosen appropriate to have the assay in the linear range, a typical concentrations are about 0.0375 ng/μL. […] Subsequently 2.5 μL of the “kinase detection reagent” (1.2 fold more concentrated than recommended by the producer) were added, the resulting mixture was incubated at 22° C. for 1 h and then the luminescence measured with a suitable measurement instrument (e.g. Viewlux™ from Perkin-Elmer). […]

[3] = biological target: Casein kinase I isoform delta (Homo sapiens, UniProt P48730); assay: CSNK1D-Inhibitory Activity Assay
Chain of Casein kinase I isoform delta (P48730 whole entry, canonical isoform): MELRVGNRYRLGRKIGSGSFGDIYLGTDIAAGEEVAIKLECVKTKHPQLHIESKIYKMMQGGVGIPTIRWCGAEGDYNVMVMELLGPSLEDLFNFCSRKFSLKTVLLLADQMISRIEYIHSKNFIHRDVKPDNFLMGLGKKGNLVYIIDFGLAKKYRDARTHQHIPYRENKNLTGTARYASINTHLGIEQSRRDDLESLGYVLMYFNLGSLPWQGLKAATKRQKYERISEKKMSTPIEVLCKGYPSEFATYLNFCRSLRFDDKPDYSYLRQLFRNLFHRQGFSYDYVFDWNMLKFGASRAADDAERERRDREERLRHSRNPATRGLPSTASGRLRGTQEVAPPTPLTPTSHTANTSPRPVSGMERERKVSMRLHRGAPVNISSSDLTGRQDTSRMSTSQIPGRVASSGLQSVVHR
Description: For the assay 50 nl of a 100-fold concentrated solution of the test compound in DMSO was pipetted into a white 1536-well microtiter plate (Greiner Bio-One, Frickenhausen, Germany), 2 μL of a solution of CSNK1D in aqueous assay buffer [50 mM HEPES pH 7.5, 10% (v/v) glycerol, 10 mM MgCl2, 50 mM NaCl, 1 mM dithiothreitol, 0.01% (w/v) bovine serum albumin, 0.01% (v/v) Triton X-100] were added and the mixture was incubated for 15 min at 22° C. to allow pre-binding of the test compounds to the enzyme before the start of the kinase reaction. Then the kinase reaction was started by the addition of 3 μL of a solution of ATP (1.67 μM=>final conc. in the 5 μL assay volume is 1 μM) and peptide substrate (50 μM=>final conc. in the 5 μL assay volume is 30 μM) in assay buffer and the resulting mixture was incubated for a reaction time of 30 min at 22° C. The concentration of CSNK1D was adjusted depending of the activity of the enzyme lot and was chosen appropriate to have the assay in the linear range, a typical concentration is about 0.5 ng/μL. […] Subsequently 2.5 μL of the “kinase detection reagent” (1.2 fold more concentrated than recommended by the producer) were added, the resulting mixture was incubated at 22° C. for 1 h and then the luminescence measured with a suitable measurement instrument (e.g. Viewlux™ from Perkin-Elmer). […]

[4] = biological target: Casein kinase I isoform gamma-3 (Homo sapiens, UniProt Q9Y6M4); assay: CSNK1G3-Inhibitory Activity Assay
Chain of Casein kinase I isoform gamma-3 (Q9Y6M4 whole entry, canonical isoform): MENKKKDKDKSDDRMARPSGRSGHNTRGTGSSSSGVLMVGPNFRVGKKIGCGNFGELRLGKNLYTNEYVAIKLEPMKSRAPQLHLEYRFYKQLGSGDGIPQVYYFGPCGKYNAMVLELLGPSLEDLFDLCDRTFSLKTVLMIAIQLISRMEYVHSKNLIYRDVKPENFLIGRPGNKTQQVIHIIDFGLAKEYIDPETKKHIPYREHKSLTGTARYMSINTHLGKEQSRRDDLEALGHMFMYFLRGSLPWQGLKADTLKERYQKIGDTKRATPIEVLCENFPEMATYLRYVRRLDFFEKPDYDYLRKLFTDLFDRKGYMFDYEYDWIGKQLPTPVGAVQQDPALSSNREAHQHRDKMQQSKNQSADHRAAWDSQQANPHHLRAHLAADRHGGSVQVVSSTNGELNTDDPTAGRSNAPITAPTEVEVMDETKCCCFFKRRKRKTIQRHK
Description: For the assay 50 nl of a 100 fold concentrated solution of the test compound in DMSO was pipetted into a white 1536-well microtiter plate (Greiner Bio-One, Frickenhausen, Germany), 2 μL of a solution of CSNK1G3 in aqueous assay buffer [50 mM HEPES pH 7.5, 10% (v/v) glycerol, 10 mM MgCl2, 50 mM NaCl, 1 mM dithiothreitol, 0.01% (w/v) bovine serum albumin, 0.01% (v/v) Triton X-100] were added and the mixture was incubated for 15 min at 22° C. to allow pre-binding of the test compounds to the enzyme before the start of the kinase reaction. Then the kinase reaction was started by the addition of 3 μL of a solution of ATP ([…]) and peptide substrate (50 μM=>final conc. in the 5 μL assay volume is 30 μM) in assay buffer and the resulting mixture was incubated for a reaction time of 30 min at 22° C. The concentration of CSNK1G3 was adjusted depending of the activity of the enzyme lot and was chosen appropriate to have the assay in the linear range, a typical concentration is about 0.06 ng/μL. […] Subsequently 2.5 μL of the “kinase detection reagent” (1.2 fold more concentrated than recommended by the producer) were added, the resulting mixture was incubated at 22° C. for 1 h and then the luminescence measured with a suitable measurement instrument (e.g. Viewlux™ from Perkin-Elmer). […]

T1 sequence (P48729 whole entry, canonical isoform): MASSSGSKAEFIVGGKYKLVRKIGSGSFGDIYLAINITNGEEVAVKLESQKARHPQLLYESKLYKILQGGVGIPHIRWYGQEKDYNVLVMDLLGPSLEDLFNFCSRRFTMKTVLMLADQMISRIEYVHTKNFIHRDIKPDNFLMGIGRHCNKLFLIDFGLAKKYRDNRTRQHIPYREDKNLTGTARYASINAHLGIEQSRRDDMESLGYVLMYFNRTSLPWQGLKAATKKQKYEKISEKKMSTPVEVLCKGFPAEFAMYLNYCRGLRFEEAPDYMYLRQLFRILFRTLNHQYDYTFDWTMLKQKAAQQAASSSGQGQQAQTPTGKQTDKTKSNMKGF

## O=C(Cc1cnco1)Nc1cc(-c2[nH]c3cccnc3c2-c2ccccn2)ccn1 [US20250188075, Example 4]
[1]
  IC50: 47 nM
[2]
  IC50: 1.82 nM
[3]
  IC50: 5.22 nM
[4]
  IC50: 50.3 nM
